This passage reports pKa results from ChEMBL document CHEMBL2448811, “Comparison of the accuracy of experimental and predicted pKa values of basic and acidic compounds” (Pharm Res, 2013).

Series [1] in a line: physchem.
The nature of series [2]: physchem. The source holds these as a separate data set.
A short description of series [3]: physchem. This is another data set of the same source.
A short description of series [4]: physchem. The source holds these as a separate data set.

Where a SMILES comes first, the peptide text is derived from it.

As to `CN/C(=C/[N+](=O)[O-])NCCSCc1ccc(CN(C)C)o1`, the results for the pKa in “physchem [1]” and in “physchem [2]” were 8.47 and 9.6, respectively. In the case of `Cc1cc(=O)oc2cc(O[C@@H]3O[C@H](CO)[C@@H](O)[C@H](O)[C@H]3O)ccc12`, in “physchem [3]” (pKa), the pKa worked out at 2.82. In turn, `CN(C)[C@@H]1C(=O)C(C(N)=O)=C(O)[C@@]2(O)C(O)=C3C(=O)c4c(O)cccc4[C@@](C)(O)C3[C@H](O)C12` (stereo not given in full) came in with a pKa in “physchem [4]” of 7.32. For the compound `CN(C)CCO[C@]1(c2ccccc2)C[C@H]2CC[C@]1(C)C2(C)C`, the pKa in the series “physchem [3]” (pKa) stood at 9.61.

`CO[C@@H]1[C@@H](O[C@@H]2O[C@H](C)[C@@H](O)[C@H](N(C)C)[C@H]2O)[C@@H](CC=O)C[C@@H](C)C(=O)/C=C/[C@@H]2O[C@H]2C[C@@H](C)OC(=O)C[C@H]1OC(C)=O` returned a pKa in “physchem [3]” (pKa) of 8.44.

On to `CCCCCCCC(=O)OC(CC(=O)[O-])C[N+](C)(C)C` (stereo not given), for which the pKa in the series “physchem [4]” is 3.6. The same measure, in the same setting: to `CCCCCCCCCC(=O)OC(CC(=O)[O-])C[N+](C)(C)C` (stereo not given) belongs 3.65.

In turn, `N[C@@H](Cc1c[nH]c2ccccc12)C(=O)N[C@@H](Cc1ccccc1)C(=O)O` (H-Trp-Phe-OH) came in with a pKa in “physchem [3]” (pKa) of 3.18. Compound `N[C@@H](Cc1c[nH]c2ccccc12)C(=O)N[C@@H](Cc1c[nH]c2ccccc12)C(=O)O` (H-Trp-Trp-OH) yielded a pKa in “physchem [3]” (pKa) of 3.38. As for `CCCCC[C@H](O)/C=C/[C@H]1[C@H](O)CC(=O)[C@@H]1CCCCCCC(=O)O` [ALPROSTADIL], the pKa in the series “physchem [3]” (pKa) turned out to be 4.87. In the case of `Nc1ccc(C(=O)O)cc1` [AMINOBENZOIC ACID], the pKa in the series “physchem [4]” is 4.87.

For the compound `Nc1ccc(C(=O)O)c(O)c1` [AMINOSALICYLIC ACID], the pKa worked out at 3.62 in “physchem [1]” (pKa) and 3.4 in “physchem [2]”.

On to `CCN1CCCC1CNC(=O)c1cc(S(=O)(=O)CC)c(N)cc1OC` (stereo not given) [AMISULPRIDE], for which the pKa in “physchem [1]” (pKa) is 9.37; in “physchem [2]”, 9.3. Turning to `N[C@@H](CC(=O)O)C(=O)O` [ASPARTIC ACID], in “physchem [3]” (pKa), the pKa amounted to 9.67. On to `CCCCNc1cc(C(=O)O)cc(S(N)(=O)=O)c1Oc1ccccc1` [BUMETANIDE], for which the pKa worked out at 3.83 in the series “physchem [1]” (pKa) and 3.6 in the series “physchem [2]”. Compound `CC(NC(C)(C)C)C(=O)c1cccc(Cl)c1` (stereo not given) [BUPROPION] yielded a pKa in “physchem [1]” of 8.35.

Compound `CCCC(=O)OC(CC(=O)[O-])C[N+](C)(C)C` (stereo not given) [Butyryl-carnitine] had a pKa in “physchem [4]” of 3.56. In the case of `CCN(CC)C(=O)Nc1ccc(OCC(O)CNC(C)(C)C)c(C(C)=O)c1` (stereo not given) [CELIPROLOL], in “physchem [3]” (pKa), the pKa was 9.66. The same measure, in the same setting: with `CCCCC[C@H](O)/C=C/[C@H]1[C@H](O)CC(=O)[C@@H]1C/C=C\CCCC(=O)O` [DINOPROSTONE] the figure was 4.77.

As for `CN(C)CC/C=C1\c2ccccc2COc2ccccc21` [E-DOXEPIN], the pKa is 9 in the series “physchem [1]” (pKa) and 8.7 in “physchem [2]”. In “physchem [3]”, `CC(Cc1ccc(C(C)(C)C)cc1)CN1C[C@@H](C)O[C@@H](C)C1` (stereo not given in full) [FENPROPIMORPH] registered a pKa of 7.34. As to `CN1CCN(c2c(F)cc3c(=O)c(C(=O)O)cn(CCF)c3c2F)CC1` [FLEROXACIN], the pKa in “physchem [1]” (pKa) was 8.8; in “physchem [2]” it was 5.5.

Regarding `COc1c(N2CCNC(C)C2)c(F)cc2c(=O)c(C(=O)O)cn(C3CC3)c12` (stereo not given) [GATIFLOXACIN], the pKa in “physchem [1]” (pKa) came to 8.74; in the series “physchem [2]”, 9.4. For `CNC[C@H](O)[C@@H](O)[C@H](O)[C@H](O)CO` [MEGLUMINE], the pKa in “physchem [3]” (pKa) was determined as 9.6. In the series “physchem [3]” (pKa), `N[C@@H](Cc1ccccc1)C(=O)O` [PHENYLALANINE] came in with a pKa of 9.08. `CCC(=O)O[C@](Cc1ccccc1)(c1ccccc1)[C@H](C)CN(C)C` [PROPOXYPHENE] registered a pKa in the series “physchem [3]” of 9.06.

For `Cc1ncc(CO)c(CN)c1O` [PYRIDOXAMINE], the pKa in the series “physchem [4]” was 10.3. With `CNC(=C[N+](=O)[O-])NCCSCc1ccc(CN(C)C)o1` [RANITIDINE], the pKa in “physchem [3]” (pKa) worked out at 8.31. The same measure, in the same setting: with `CC[C@H]1OC(=O)C[C@@H](O)[C@H](C)[C@@H](O[C@@H]2O[C@H](C)C[C@H](N(C)C)[C@H]2O)[C@@H](CC=O)C[C@@H](C)C(=O)/C=C/C(C)=C/[C@@H]1C` [REPROMICIN] the figure was 8.83.

For the compound `CCN(C)C(=O)Oc1cccc([C@H](C)N(C)C)c1` [RIVASTIGMINE], the pKa in “physchem [3]” amounted to 8.8. `CC[C@H]1OC(=O)[C@H](C)[C@@H](O[C@H]2C[C@@](C)(OC)[C@@H](O)[C@H](C)O2)[C@H](C)[C@@H](O[C@@H]2O[C@H](C)C[C@H](N(C)C)[C@H]2O)[C@](C)(O)C[C@@H](C)/C(=N\OCOCCOC)[C@H](C)[C@@H](O)[C@]1(C)O` [ROXITHROMYCIN] registered a pKa in “physchem [3]” (pKa) of 9.27. In the series “physchem [2]”, `Cc1ccc(/C(=C\CN2CCCC2)c2ccccn2)cc1` [TRIPROLIDINE] registered a pKa of 9.25. On the same count and under the same terms, to `CCOC(=O)C1=C[C@]2(CC)CCCN3CCc4c(n1c1ccccc41)[C@@H]32` [VINPOCETINE] belongs 7.1.

A word on the pKa: it is the negative logarithm of the acid dissociation constant. Lower therefore signals a group that gives up its proton readily.
